Test results as given in PubChem BioAssay AID2305 (GlaxoSmithKline (GSK), 2010).

System: P. falciparum 3D7 growth, pLDH absorbance
Experiment: P. falciparum 3D7 growth inhibition, dose response, strain 3D7 (AID 2305)

| SMILES | IC50 [nM] |
| --- | --- |
| CN(CCC(O)c1ccc(Cl)c(Cl)c1)C[C@H]1C[C@@H]1C(=O)c1ccccc1 (some centres undefined) | 790 |
| C=CCn1ccc2c3c(N)nc(N)nc3ccc21 | 70 |
| Cc1cccc2sc(N(CCCn3ccnc3)C(=O)C=Cc3cccs3)nc12 | 1280 |
| O=C(/C=C/c1ccc(C(F)(F)F)cc1)NCCCCCN1CCCN(C(=O)Nc2cccc(Cl)c2)CC1 | 990 |
| Cc1ccc2c(NN=CC=Cc3ccccc3)cc(C)nc2c1 | 1120 |
| CC(C)C[C@@H](CNC[C@H](CC(C)C)NC(=O)OC(C)(C)C)NC(=O)OC(C)(C)C | 1250 |
| CC(=O)Nc1cccc(Nc2nccc(Nc3ccc(Oc4ccccc4)cc3)n2)c1 | 750 |
| CC(C)C[C@H](NC(=O)c1cc2ccccc2s1)C(=O)N[C@H]1CCN(Cc2ccc(OCCCN(C)C)c(Cl)c2)C1 | 900 |
| C[C@@H](CC1CCCCC1)OC(=O)N[C@H]1CCN(C#N)C1 | 870 |
| CCc1cccc(NC(=O)c2ccc(CN3CCCN(CC4CCCCC4)CC3)cc2)c1 | 400 |
| COc1ccc2c(NN=Cc3ccccn3)ccnc2c1 | 370 |
| Cc1nc(-c2ccc(-c3ccc(NC(=O)c4coc5ccc(N6C[C@@H](C)N(C)[C@@H](C)C6)cc45)cc3)c(C)c2)no1 | 770 |
| O=C(Nc1ccc(Cn2ncc(N3CCCNCC3)c(Cl)c2=O)cc1)Nc1cccc(Oc2ccccc2)c1 | 990 |
| CC(C)c1ccc(CN2CCC(CNC(=O)c3cc(-c4ccc(N(C)C)cc4)cs3)C2)cc1 (centres undefined) | 1250 |
| CC(Cc1ccc(-c2nc3ccccc3[nH]2)cc1)NCC(O)c1cccc(C(F)(F)F)c1 (centres undefined) | 350 |
| CCc1cn2c3c(cc(C(=O)N[C@@H](Cc4cccc(F)c4)[C@H](O)CNC4CCOCC4)cc13)N(C)S(=O)(=O)CC2 | 70 |
| CCc1cccc(OCC2CCCN(c3ccc(C(=O)NC4CC4)cn3)C2)c1 (centres undefined) | 1440 |
| COc1cc(F)c2nccc([C@@H](O)CN3CCC(NCc4ccc5c(n4)NC(=O)CS5)CC3)c2c1 | 560 |
| CN1CCN(c2ccnc3ccc(NC(=O)Nc4c(Cl)cccc4Cl)cc23)CC1 | 880 |
| CC(C)(C)c1ccc2oc(=O)n(C3CCN(C(=O)c4ccc([N+](=O)[O-])o4)CC3)c2c1 | 820 |
| O=C1C(C2CCC(c3ccc(Cl)cc3)CC2)=C2OCC3COC2(O3)c2ccccc21 (centres undefined) | 40 |
| COc1ccc(NC(=O)[C@H](CC(C)C)Nc2ccnc(Nc3ccccc3)n2)cc1 | 1570 |
| CCN(CCCN1CCCCC1)c1cc(C)nc(Nc2ccc(Br)cc2F)n1 | 550 |
| O=C(/C=C/c1ccc(C(F)(F)F)cc1)NCCCCCN1CCC(c2c[nH]c3ccccc23)CC1 | 680 |
| Oc1ccc(Br)cc1C(O)CNCc1ccccc1OCc1ccccc1 (centres undefined) | 170 |

| SMILES | IC50 [nM] |
| --- | --- |
| O=C([C@H]1C[C@@H]1c1ccccc1)N(Cc1ccc(-c2ccc(CNCCc3ccccc3)cc2)cc1)C1CCNCC1 | 1110 |
| Cc1cc(NC(=O)c2coc3cc(F)c(N4C[C@@H](C)N(C)[C@@H](C)C4)cc23)cnc1-c1ccc(C#N)cc1 | 700 |
| CC1CCN(c2nc(C(=O)Nc3ccc(F)cc3C(F)(F)F)c(C(C)C)s2)CC1 | 230 |
| CNCCCNCc1ccc(-c2ccc(F)c(Cl)c2)o1 | 750 |
| CC1CCCCN1CCCNc1nc(NCc2ccccc2)c2ccccc2n1 (centres undefined) | 950 |
| COc1cccc(C2CCN(CCCCNC(=O)c3ccc(NC(=O)c4ccc(Cl)cc4)cc3)CC2)c1 | 960 |
| CN1CCCN(Cc2ccc(-c3cccc(NC(=O)c4ccc(Cl)cc4)c3)cc2)CC1 | 610 |
| COc1csc2cc(Br)ccc12 | 860 |
| c1ccc(CC2=NCCN2)cc1 | 190 |
| O=C(Nc1cccc(-c2cccc(-c3nc4ccc(C(F)(F)F)cc4[nH]3)c2)c1)c1cccnc1Cl | 660 |
| CC[C@]1(C)C[C@@H](NC(=O)NC(=O)c2ccc(OC)cc2)[C@]2(C)[C@H](C)CC[C@]3(CCC(=O)[C@H]32)[C@@H](C)[C@@H]1OC(=O)NC(=O)c1ccc(OC)cc1 | 990 |
| c1cncc(-c2cc(N3CCCCC3)nc(-c3ccncc3)n2)c1 | 770 |
| OC1(c2ccc(Br)cc2)CCN(C2CCN(Cc3ccccc3)CC2)CC1 | 600 |
| FC(F)(F)c1ccc2nc(-c3ccc(-c4ccc(CN5CCN(c6ccncc6)CC5)cc4)s3)[nH]c2c1 | 150 |
| Cc1cccc2[nH]c(-c3ccc(-c4cccc(NC(=O)Nc5ccc(Cl)c(Cl)c5)c4)s3)nc12 | 590 |
| c1ccc2[nH]c(-c3ccc(-c4ccc(CNCCc5ccncc5)cc4)s3)nc2c1 | 160 |
| N#Cc1cccc(C(=O)Nc2cccc(-c3cccc(CN4CCNCC4)c3)c2)c1 | 950 |
| CCN1CCc2nc3ccccc3c(C(=O)Nc3ccc(C#N)cc3)c2C1 | 780 |
| Cc1cc(NCC(c2ccccc2)c2ccccc2)nc(NCC2CCCCC2)n1 | 510 |
| COc1ccc(-c2cccc(NC(=O)c3cccc(C#N)c3)c2)cc1CN1CCC(O)CC1 | 990 |
| CNC(=O)c1[nH]c(-c2ccccc2)nc1NC(C)=O | 150 |
| CCn1ncc(Cl)c1CN(C)S(=O)(=O)c1ccc2ccccc2c1 | 820 |
| COCCNCc1ccc(-c2ccc3c(Nc4ccc(Cl)cc4F)ccnc3c2)o1 | 210 |
| CCN(CCCN1CCCCC1)c1cc(C)nc(Nc2ccc(F)c(C(F)(F)F)c2)n1 | 150 |
| Cc1[nH]c(C)c(-c2ccc(Oc3ccc(Cl)cc3Cl)cc2)c(=O)c1Br | 300 |

| SMILES | IC50 [nM] |
| --- | --- |
| CCn1c(C(C)C)cc2c3c(N)nc(N)nc3ccc21 | 10 |
| NC(N)=Nc1ccc(OCCCCCOc2ccc(N=C(N)N)cc2)cc1 | 190 |
| CC(C)Oc1ccc2ccccc2c1CNCCCCCCNCc1c(OC(C)C)ccc2ccccc12 | 610 |
| COc1cc(CCCOc2c(N)nc(N)nc2N)cc(OC)c1OC | 1220 |
| COc1ccc2nccc([C@@H](O)CN3CCC(NCc4cc5cccc(O)c5[nH]4)CC3)c2c1 | 840 |
| COc1ccc2c(CCNc3nc(SC)ncc3C(=O)NCCc3ccc(F)cc3)c[nH]c2c1 | 760 |
| CC(C)(C)c1cc(C(=O)N2CCN(c3ncnc4ccsc34)CC2)n(Cc2ccccc2)n1 | 910 |
| CCCC(C)Nc1nc(C)cc(N[C@@H](CC(C)C)C(=O)NCc2ccc(C)cc2)n1 (some centres undefined) | 1010 |
| CNCCNCc1ccc(-c2ccc(-c3nc4c(C)cccc4[nH]3)s2)cc1 | 730 |
| O=C(/C=C/c1cccc(C(F)(F)F)c1)NCCCCCN1CCC(c2c[nH]c3ccccc23)CC1 | 840 |
| NC1CCN(Cc2ccc(-c3ccc(-c4nc5ccc(F)cc5[nH]4)s3)cc2)C1 (centres undefined) | 650 |
| COC(=O)CN(C(=O)/C=C/c1ccc(Cl)c(Cl)c1)C1CCC(CN2CCC(c3c[nH]c4ccccc34)CC2)CC1 (centres undefined) | 510 |
| CCCCCN1CCCC(CNS(=O)(=O)c2cccc(C(=O)Nc3ccc(C(F)(F)F)cc3)c2)C1 (centres undefined) | 830 |
| COc1ccc(CN(C)CCCc2ccc(NC(=O)c3cccc4c(=O)c5cccc(F)c5[nH]c34)cc2)cc1OC | 940 |
| O=c1cc(NCCCNCc2cc(Cl)cc(Cl)c2OCc2ccccc2)[nH]c2ccccc12 | 1030 |
| N#Cc1ccc2c(c1)CCN(CCC1CCC(NC(=O)/C=C/c3cccc4ccccc34)CC1)CC2 (centres undefined) | 730 |
| Clc1ccc(OCCC2CCN(CCCCCCCN3CCC(CCOc4ccc(Cl)c(Cl)c4)CC3)CC2)cc1Cl | 620 |
| O=C(NC1CC1)c1cnc(N2CCN(Cc3ccc(Cl)cc3)CC2)c(Cl)c1 | 850 |
| Cc1ccc(C=C2SC(=Nc3ccccc3)NC2=O)c(C)c1 | 560 |
| N#CCSc1nnc(-c2ccccc2)c2ccccc12 | 720 |
| Cc1ccc(NC(=O)c2cc(Br)cc(N3CCC(N(C)C)CC3)c2)cc1F | 840 |
| COc1ccc(CNC2CCN(C)CC2)cc1-c1ccc(S(=O)(=O)NC2CCC2)cc1 | 880 |
| c1ccc(-c2ccc3c(Nc4ccc5[nH]ccc5c4)ccnc3c2)nc1 | 940 |
| Cc1cc(N2CCC(NS(=O)(=O)c3ccccc3)CC2)nc(Nc2cccc(C#N)c2)n1 | 1350 |
| CCCc1cc([C@@H](O)[C@@H]2C[C@@H]3CCN2C[C@@H]3CC)c2ccccc2n1 | 430 |

| SMILES | IC50 [nM] |
| --- | --- |
| COc1cc(CCON2C(N)=NC(N)=NC2(C)C)cc(OC)c1OC | 50 |
| CN1CCC(COc2ccc(CN3CCC(NC(=O)c4cccc(Cl)c4)CC3)cc2)CC1 | 890 |
| COc1ccc(C(=O)[C@H]2C[C@@H]2CN(C)CC(O)c2cc(C)c(OC)cc2C)cc1 (some centres undefined) | 970 |
| N#Cc1ccc(-c2ccc(C(=O)NCCCCN3CCC(c4ccc5c(c4OCC(N)=O)CCCC5)CC3)nc2)cc1 | 730 |
| CN(C)CCCOc1ccc(CNCC(C)(C)c2nc(-c3ccc(Cl)c(O)c3)c(-c3ccncc3)[nH]2)cc1 | 710 |
| O=C(Nc1ccc2c(c1)CCN2C1CCN(Cc2cccc(F)c2F)C1)c1ccco1 (centres undefined) | 790 |
| c1cncc(CN2CCCN(c3ccc4c(c3)CCN(Cc3ccc(-c5ncc[nH]5)cc3)CC4)CC2)c1 | 750 |
| CCCCCN1CCN(Cc2cccc(NC(=O)c3ccc(Cl)c(Cl)c3)c2)CC1 | 860 |
| CN1CCN(c2ccc(Nc3nccc(-c4c(-c5cccc(NC(=O)c6c(F)cccc6F)c5)nn5ccccc45)n3)cc2)CC1 | 110 |
| Cc1ccc(F)c(C(=O)Nc2cccc(-c3nn4ccccc4c3-c3ccnc(Nc4cccc(F)c4)n3)c2)c1F | 1050 |
| COc1ccc(CNC2Cc3ccccc3C2)cc1-c1cccc(S(=O)(=O)NCCN2CCCC2)c1 | 760 |
| CC(C)(CNCc1ccc(F)c(F)c1)c1nc(-c2ccc(Cl)c(O)c2)c(-c2ccnc(N)n2)[nH]1 | 740 |
| Cc1cccc2[nH]c(-c3ccc(-c4cccc(NC(=O)c5cccc(C(N)=O)c5)c4)cc3)nc12 | 1130 |
| Cc1ccc(-c2[nH]n3c(=O)c4c(nc3c2C)CCCC4)cc1 | 220 |
| COc1cccc2cc(C(=O)N[C@@H](CC(C)C)C(=O)NC(/C=N/NC(=O)c3ccccc3)CCc3ccccc3)oc12 (some centres undefined) | 580 |
| COc1cc([N+](=O)[O-])ccc1NC(=O)Nc1ccc(OC(F)(F)F)cc1 | 1030 |
| Nc1nc(F)nc2nc[nH]c12 | 430 |
| COc1ccc2nccc([C@@H](O)CN3CCC(NCc4cc5cc(OC(F)(F)F)ccc5[nH]4)CC3)c2c1 | 130 |
| CCOc1cc(Br)c(C(C)NC(=O)c2ccccc2)cc1OCC (centres undefined) | 860 |
| Cc1cc(F)ccc1-c1nc(NCCCNCCc2ccccc2)nc2c1ccc(=O)n2-c1c(F)cccc1F | 190 |
| CC(=O)CSC(C=Cc1ccc(N(C)C)cc1)=Nc1ccccc1 | 1120 |
| CC(CCc1ccccc1)NCC(O)c1ccc2c(c1)S(=O)(=O)c1ccccc1N2 (centres undefined) | 1220 |
| Nc1cccc(CNCc2cccc(-c3cccc(-c4nc5ccc(C(F)(F)F)cc5[nH]4)c3)c2)c1 | 510 |
| N#Cc1cc(C(=O)c2cc(Br)ccc2O)cn(C2CCCCC2)c1=O | 910 |
